Experiment [1] has as its target Tyrosine-protein kinase Fyn (Homo sapiens, UniProt P06241).
Experiment [2] concerns the target STE20-like serine/threonine-protein kinase (Homo sapiens, UniProt Q9H2G2).
Experiment [3] has as its target Casein kinase I isoform alpha (Homo sapiens, UniProt P48729).
Experiment [4] concerns the target Tyrosine-protein kinase FRK (Homo sapiens, UniProt P42685).
Experiment [5] has as its target S-adenosylmethionine synthase isoform type-2 (Homo sapiens, UniProt P31153).
Experiment [6] addresses Protein-tyrosine kinase 2-beta (Homo sapiens, UniProt Q14289).
The target in experiment [7] is Ribosomal protein S6 kinase alpha-5 (Homo sapiens, UniProt O75582).
Experiment [8] addresses Putative heat shock protein HSP 90-beta 2 (Homo sapiens, UniProt Q58FF8).
The target of experiment [9] is T1, EKC/KEOPS complex subunit TP53RK (Homo sapiens, UniProt Q96S44).
T1 sequence (Q96S44 whole entry): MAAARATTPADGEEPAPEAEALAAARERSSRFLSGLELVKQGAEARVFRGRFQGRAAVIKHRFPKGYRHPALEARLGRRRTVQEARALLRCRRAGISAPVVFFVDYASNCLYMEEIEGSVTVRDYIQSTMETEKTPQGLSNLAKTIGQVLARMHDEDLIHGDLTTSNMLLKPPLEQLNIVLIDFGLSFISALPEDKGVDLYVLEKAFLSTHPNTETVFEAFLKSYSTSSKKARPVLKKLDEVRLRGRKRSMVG

In experiment [10] the target is Bone morphogenetic protein receptor type-1A (Homo sapiens, UniProt P36894).
Experiment [11] deals with T2, STE20-related kinase adapter protein alpha (Homo sapiens, UniProt Q7RTN6).
T2 sequence (Q7RTN6 whole entry): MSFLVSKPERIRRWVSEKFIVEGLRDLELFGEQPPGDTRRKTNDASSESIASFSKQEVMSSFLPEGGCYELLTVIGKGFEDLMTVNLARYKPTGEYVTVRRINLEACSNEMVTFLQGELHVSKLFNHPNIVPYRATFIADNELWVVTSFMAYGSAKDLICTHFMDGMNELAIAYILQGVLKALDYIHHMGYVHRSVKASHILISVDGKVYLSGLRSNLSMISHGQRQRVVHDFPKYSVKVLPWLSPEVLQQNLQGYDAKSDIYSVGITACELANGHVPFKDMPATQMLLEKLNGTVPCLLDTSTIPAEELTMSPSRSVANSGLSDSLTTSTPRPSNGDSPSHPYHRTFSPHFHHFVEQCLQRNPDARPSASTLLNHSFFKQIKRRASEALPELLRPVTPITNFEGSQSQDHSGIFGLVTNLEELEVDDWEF

Experiment [12] deals with T3, Serine/threonine-protein kinase TAO2 (Homo sapiens, UniProt Q9UL54).
T3 sequence (Q9UL54 whole entry): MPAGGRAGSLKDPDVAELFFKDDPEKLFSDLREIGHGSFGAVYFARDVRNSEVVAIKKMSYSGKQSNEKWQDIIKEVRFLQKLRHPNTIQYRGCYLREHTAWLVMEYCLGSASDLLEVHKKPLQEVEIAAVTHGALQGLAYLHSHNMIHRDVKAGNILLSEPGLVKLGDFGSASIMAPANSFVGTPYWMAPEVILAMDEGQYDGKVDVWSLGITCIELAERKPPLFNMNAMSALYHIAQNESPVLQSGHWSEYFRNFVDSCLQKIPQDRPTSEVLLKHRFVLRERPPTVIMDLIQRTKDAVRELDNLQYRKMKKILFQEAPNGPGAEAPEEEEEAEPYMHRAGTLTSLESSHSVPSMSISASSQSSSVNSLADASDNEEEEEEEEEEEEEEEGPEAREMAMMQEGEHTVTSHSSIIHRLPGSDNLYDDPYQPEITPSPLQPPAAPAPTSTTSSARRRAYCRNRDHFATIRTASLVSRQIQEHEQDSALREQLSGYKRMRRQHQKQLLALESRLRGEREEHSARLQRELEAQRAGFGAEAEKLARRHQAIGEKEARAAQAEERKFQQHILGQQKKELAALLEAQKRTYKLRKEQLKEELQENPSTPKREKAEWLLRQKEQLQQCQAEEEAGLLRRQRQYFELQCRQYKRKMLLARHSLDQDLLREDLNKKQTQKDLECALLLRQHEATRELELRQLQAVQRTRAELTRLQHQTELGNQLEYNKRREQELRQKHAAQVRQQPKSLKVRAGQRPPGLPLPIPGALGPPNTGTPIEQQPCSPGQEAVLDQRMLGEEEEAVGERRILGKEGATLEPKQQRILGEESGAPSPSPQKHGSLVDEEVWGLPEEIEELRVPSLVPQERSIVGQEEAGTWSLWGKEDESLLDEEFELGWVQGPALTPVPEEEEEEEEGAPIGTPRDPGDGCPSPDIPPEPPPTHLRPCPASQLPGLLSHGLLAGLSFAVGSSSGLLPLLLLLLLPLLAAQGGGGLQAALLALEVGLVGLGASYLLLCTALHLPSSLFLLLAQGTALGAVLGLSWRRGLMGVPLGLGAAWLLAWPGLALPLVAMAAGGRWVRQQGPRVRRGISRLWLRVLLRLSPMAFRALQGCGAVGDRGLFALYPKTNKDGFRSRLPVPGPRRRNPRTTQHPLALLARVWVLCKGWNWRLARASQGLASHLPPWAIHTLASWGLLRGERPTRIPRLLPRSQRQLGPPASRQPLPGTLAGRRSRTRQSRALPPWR

Active and inactive are the calls of the source. For most assays here, no stated cut-off is given here; in the data, actives have a measured Kd and inactives only a lower limit. A value given as a limit tells only on which side of the number the result lay.

Casein kinase I isoform alpha, sequence (P48729 whole entry, canonical isoform): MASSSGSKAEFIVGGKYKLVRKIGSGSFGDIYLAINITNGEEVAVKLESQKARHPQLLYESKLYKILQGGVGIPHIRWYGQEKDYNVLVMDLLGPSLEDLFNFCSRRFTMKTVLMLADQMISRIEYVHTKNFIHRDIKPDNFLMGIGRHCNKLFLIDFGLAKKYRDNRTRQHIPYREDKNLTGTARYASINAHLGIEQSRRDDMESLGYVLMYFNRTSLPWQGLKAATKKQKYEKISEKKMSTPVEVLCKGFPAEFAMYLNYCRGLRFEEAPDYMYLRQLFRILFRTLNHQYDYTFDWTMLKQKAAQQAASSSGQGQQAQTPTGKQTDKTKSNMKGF
Bone morphogenetic protein receptor type-1A, sequence (P36894 whole entry): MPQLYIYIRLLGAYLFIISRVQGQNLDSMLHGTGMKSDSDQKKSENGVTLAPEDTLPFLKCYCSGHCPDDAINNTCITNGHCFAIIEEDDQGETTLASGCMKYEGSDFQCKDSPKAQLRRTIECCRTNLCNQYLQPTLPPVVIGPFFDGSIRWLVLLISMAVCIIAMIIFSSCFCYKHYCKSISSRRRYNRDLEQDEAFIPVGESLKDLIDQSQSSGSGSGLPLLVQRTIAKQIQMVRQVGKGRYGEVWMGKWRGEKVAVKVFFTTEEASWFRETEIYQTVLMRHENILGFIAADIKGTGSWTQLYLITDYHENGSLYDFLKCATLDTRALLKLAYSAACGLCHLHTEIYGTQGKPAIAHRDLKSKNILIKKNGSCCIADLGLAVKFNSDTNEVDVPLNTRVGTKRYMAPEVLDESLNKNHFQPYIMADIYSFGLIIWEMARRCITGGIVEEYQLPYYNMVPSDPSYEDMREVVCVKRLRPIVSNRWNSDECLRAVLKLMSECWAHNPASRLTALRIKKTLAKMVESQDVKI
Ribosomal protein S6 kinase alpha-5, sequence (O75582 whole entry): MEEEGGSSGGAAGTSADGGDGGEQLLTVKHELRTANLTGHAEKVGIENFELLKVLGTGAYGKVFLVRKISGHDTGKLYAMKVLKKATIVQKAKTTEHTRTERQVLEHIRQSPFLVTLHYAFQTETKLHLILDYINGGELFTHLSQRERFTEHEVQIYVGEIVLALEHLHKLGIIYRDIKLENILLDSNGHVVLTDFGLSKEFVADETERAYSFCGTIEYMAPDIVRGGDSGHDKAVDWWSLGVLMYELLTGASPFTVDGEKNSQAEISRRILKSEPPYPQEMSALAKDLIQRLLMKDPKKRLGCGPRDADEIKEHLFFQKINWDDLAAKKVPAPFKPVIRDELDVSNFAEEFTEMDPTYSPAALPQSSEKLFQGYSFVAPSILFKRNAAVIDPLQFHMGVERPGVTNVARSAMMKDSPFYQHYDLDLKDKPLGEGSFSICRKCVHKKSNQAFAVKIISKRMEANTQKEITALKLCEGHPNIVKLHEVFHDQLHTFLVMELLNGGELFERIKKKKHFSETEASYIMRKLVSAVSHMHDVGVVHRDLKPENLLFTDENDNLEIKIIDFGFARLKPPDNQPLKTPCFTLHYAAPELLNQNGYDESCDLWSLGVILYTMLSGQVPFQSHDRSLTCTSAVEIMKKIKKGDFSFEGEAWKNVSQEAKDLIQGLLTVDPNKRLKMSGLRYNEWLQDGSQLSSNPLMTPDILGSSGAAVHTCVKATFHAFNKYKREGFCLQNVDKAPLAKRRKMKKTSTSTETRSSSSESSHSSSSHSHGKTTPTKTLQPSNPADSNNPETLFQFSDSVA
Tyrosine-protein kinase FRK, sequence (P42685 whole entry, canonical isoform): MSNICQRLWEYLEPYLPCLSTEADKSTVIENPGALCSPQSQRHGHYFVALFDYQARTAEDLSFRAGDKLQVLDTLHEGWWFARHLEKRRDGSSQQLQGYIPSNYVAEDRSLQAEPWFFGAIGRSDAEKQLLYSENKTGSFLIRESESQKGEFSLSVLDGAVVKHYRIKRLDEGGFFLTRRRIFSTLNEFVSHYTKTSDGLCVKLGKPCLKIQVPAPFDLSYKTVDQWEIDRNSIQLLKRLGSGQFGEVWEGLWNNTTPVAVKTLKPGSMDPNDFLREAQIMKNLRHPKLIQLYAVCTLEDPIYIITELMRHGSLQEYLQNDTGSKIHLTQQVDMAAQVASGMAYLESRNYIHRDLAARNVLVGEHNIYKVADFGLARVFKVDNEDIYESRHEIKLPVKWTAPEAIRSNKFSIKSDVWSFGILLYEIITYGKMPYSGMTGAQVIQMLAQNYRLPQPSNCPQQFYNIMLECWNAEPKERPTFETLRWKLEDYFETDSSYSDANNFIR
STE20-like serine/threonine-protein kinase, sequence (Q9H2G2 whole entry, canonical isoform): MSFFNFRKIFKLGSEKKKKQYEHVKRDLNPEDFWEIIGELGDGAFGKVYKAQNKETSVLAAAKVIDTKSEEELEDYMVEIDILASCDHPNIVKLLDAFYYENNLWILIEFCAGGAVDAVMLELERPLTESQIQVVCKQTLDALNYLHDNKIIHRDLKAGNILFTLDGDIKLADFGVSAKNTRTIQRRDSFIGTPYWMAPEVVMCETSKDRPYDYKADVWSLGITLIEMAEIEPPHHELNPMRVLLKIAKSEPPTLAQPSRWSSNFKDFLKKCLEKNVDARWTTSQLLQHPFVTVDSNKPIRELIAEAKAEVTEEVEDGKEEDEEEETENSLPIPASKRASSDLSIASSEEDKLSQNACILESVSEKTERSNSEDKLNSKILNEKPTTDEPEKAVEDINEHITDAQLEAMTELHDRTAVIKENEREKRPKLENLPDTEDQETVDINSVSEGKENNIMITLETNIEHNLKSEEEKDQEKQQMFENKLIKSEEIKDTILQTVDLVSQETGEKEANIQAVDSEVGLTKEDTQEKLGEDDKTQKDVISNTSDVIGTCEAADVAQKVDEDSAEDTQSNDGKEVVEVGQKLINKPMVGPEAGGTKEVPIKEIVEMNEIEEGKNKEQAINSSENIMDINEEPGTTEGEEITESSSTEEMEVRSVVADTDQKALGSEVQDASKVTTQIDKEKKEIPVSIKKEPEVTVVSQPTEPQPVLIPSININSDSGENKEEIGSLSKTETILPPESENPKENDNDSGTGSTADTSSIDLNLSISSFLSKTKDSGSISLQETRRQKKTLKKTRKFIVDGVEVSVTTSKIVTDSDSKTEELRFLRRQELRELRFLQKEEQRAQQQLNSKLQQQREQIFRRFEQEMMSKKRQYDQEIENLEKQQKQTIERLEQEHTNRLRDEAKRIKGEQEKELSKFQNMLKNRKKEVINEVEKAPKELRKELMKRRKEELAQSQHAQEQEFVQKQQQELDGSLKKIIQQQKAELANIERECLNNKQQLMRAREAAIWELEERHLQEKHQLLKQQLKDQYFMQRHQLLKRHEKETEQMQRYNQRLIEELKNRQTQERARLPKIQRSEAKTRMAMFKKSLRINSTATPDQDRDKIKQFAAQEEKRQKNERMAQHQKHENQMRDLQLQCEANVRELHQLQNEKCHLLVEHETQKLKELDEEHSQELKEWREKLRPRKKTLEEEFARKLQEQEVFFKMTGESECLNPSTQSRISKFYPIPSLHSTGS
S-adenosylmethionine synthase isoform type-2, sequence (P31153 whole entry, canonical isoform): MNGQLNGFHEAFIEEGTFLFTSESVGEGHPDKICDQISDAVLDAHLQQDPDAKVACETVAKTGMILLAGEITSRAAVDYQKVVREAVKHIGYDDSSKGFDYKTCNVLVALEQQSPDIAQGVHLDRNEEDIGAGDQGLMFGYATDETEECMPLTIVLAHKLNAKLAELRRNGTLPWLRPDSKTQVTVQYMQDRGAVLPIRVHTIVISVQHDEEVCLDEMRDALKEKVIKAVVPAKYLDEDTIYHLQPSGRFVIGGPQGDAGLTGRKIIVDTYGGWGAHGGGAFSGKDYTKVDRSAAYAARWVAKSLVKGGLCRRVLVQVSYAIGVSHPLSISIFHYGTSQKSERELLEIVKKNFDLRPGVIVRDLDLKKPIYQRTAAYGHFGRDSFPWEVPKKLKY
Putative heat shock protein HSP 90-beta 2, sequence (Q58FF8 whole entry): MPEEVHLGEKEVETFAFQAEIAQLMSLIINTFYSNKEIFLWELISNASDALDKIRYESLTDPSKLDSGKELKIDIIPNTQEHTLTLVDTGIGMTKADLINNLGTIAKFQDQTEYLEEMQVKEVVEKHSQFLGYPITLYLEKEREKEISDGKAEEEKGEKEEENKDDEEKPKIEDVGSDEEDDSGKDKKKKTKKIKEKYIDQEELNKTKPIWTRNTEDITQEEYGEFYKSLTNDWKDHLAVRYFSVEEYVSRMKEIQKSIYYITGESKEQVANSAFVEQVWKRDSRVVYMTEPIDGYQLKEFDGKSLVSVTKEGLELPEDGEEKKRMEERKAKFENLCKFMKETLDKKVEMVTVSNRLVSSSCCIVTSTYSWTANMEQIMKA
Tyrosine-protein kinase Fyn, sequence (P06241 whole entry): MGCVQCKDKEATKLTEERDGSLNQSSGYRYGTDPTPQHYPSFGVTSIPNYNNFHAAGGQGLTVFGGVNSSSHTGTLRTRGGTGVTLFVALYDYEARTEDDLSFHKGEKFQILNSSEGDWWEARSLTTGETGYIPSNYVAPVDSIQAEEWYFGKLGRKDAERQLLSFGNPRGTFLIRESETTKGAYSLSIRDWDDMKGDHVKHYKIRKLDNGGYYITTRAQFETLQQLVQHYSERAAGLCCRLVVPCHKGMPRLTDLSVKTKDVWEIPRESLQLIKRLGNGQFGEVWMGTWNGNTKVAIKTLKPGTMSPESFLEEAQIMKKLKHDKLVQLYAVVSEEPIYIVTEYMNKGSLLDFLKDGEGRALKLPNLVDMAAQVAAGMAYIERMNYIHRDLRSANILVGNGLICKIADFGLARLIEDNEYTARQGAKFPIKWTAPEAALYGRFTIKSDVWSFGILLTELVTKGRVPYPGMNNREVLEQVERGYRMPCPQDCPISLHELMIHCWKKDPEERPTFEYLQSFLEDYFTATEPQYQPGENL

As to `C[C@@H](Nc1cc(F)cc(F)c1)c1cc(C(=O)N(C)C)cc2c(=O)cc(N3CCOCC3)oc12` [AZD-8186], the Kd in [1], in experiment [2], in experiment [3], in [4], in experiment [5] and in experiment [6] was > 30 µM (inactive) throughout. Moreover, the Kd in [7], in experiment [8], in [9], in [10], in experiment [11] and in experiment [12] was > 30 µM (inactive) throughout.

Regarding `COc1cc(OC)c(/C=C/S(=O)(=O)Cc2ccc(OC)c(NCC(=O)O)c2)c(OC)c1` [RIGOSERTIB], the Kd in experiment [1], in experiment [2], in [3], in experiment [4], in experiment [5] and in [6] was > 30 µM (inactive) each time. The Kd in [7], in [8], in experiment [9], in experiment [10], in [11] and in [12] was > 30 µM (inactive) in each case.

For the compound `CC[C@H](Nc1ncnc2[nH]cnc12)c1nc2cccc(F)c2c(=O)n1-c1ccccc1` [IDELALISIB], the Kd in experiment [1], in experiment [2], in experiment [3], in experiment [4], in experiment [5] and in [6] was > 30 µM (inactive) throughout. For the same compound, the Kd in [7], in [8], in experiment [9], in [10], in [11] and in experiment [12] was > 30 µM (inactive) in each case.

In the case of `C[C@@H](c1ccc2nccn2c1)n1nnc2ncc(-c3cnn(C)c3)nc21` [SAVOLITINIB], the Kd in experiment [1], in experiment [2], in experiment [3], in experiment [4], in experiment [5] and in [6] was > 30 µM (inactive) in each case. For the same compound, the Kd in experiment [7], in [8], in experiment [9], in experiment [10], in [11] and in experiment [12] was > 30 µM (inactive) each time.

For the compound `CN1N=C(N)c2cn([C@@H]3O[C@H](COP(=O)(O)O)[C@@H](O)[C@H]3O)c3ncnc1c23` [TRICIRIBINE PHOSPHATE], the Kd in experiment [1], in experiment [2], in experiment [3], in experiment [4], in experiment [5] and in [6] was > 30 µM (inactive) throughout. For the same compound, the Kd in [7], in experiment [8], in [9], in experiment [10] and in [12] was > 30 µM (inactive) in each case.

As to `Cc1ccc(S(=O)(=O)Nc2nc3ccccc3nc2Nc2ccc3nsnc3c2)cc1`, the Kd in [1], in [2], in experiment [3], in experiment [4], in experiment [5] and in experiment [6] was > 30 µM (inactive) in each case. The Kd in experiment [7], in [9], in experiment [10], in experiment [11] and in experiment [12] was > 30 µM (inactive) in each case.

Turning to `COc1cc2nccc(Oc3ccc(NC(=O)NC4CC4)c(Cl)c3)c2cc1C(N)=O` [LENVATINIB], the Kd in experiment [1] was > 30 µM (inactive); in experiment [2], 3.85 µM (active); in experiment [3], > 30 µM (inactive); in [4], > 30 µM (inactive); in experiment [5] it was > 30 µM (inactive); in experiment [6] it was > 30 µM (inactive). Further, the Kd in [7], in experiment [8], in experiment [9], in experiment [11] and in [12] was > 30 µM (inactive) throughout.

As to `CNC(=O)c1cc(Oc2ccc(NC(=O)Nc3ccc(Cl)c(C(F)(F)F)c3)c(F)c2)ccn1` [REGORAFENIB], the Kd in experiment [1], in [2], in experiment [3], in experiment [4], in experiment [5] and in experiment [6] was > 30 µM (inactive) in each case. For the same compound, the Kd in [7], in [9], in experiment [10], in [11] and in experiment [12] was > 30 µM (inactive) in each case.

As to `Cc1c(F)cc(C(=O)NC2CC2)cc1-c1ccc(C(=O)NCC(C)(C)C)cn1` [LOSMAPIMOD], the Kd in [1], in experiment [2], in [3], in experiment [4], in experiment [6] and in experiment [7] was > 30 µM (inactive) throughout. The Kd in experiment [8], in [9], in experiment [10], in experiment [11] and in experiment [12] was > 30 µM (inactive) in each case.

Take `C=CC(=O)N1CCC(Oc2cc3c(Nc4ccc(Cl)c(Cl)c4F)ncnc3cc2OC)CC1` [POZIOTINIB]: the Kd in experiment [1], in [2], in experiment [3], in [4], in experiment [5] and in [6] was > 30 µM (inactive) in each case. Moreover, the Kd in [7], in experiment [9], in experiment [10], in [11] and in experiment [12] was > 30 µM (inactive) each time.

These data come from ChEMBL document CHEMBL3991601, “The target landscape of clinical kinase drugs” (Science, 2017).
